Data: PubChem BioAssay (NCI)
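96-well plates; 48 h exposure; 5 concentrations. Endpoints by linear interpolation between flanking doses. Not reached: highest tested concentration assigned. TGI denotes the concentration required for complete inhibition of growth.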

Assays:
Assay in all cases: inhibition of tumour cell growth, NCI panel, 48 h
LXFL 529 NSCLC = test system: LXFL 529 NSCLC
SK-MEL-5 melanoma = test system: SK-MEL-5 melanoma
HOP-92 NSCLC = test system: HOP-92 NSCLC
RXF-631 renal = test system: RXF-631 renal
UACC-62 melanoma = test system: UACC-62 melanoma
DMS 114 small cell lung = test system: DMS 114 small cell lung
OVCAR-8 ovarian = test system: OVCAR-8 ovarian
SF-539 CNS = test system: SF-539 CNS
NCI-H23 lung = test system: NCI-H23 lung
DMS 273 small cell lung = test system: DMS 273 small cell lung
UO-31 renal = test system: UO-31 renal
SK-MEL-28 melanoma = test system: SK-MEL-28 melanoma
IGROV1 ovarian = test system: IGROV1 ovarian
SF-268 CNS = test system: SF-268 CNS
OVCAR-3 ovarian = test system: OVCAR-3 ovarian
NCI-H226 lung = test system: NCI-H226 lung
UACC-257 melanoma = test system: UACC-257 melanoma
DLD-1 colon = test system: DLD-1 colon
HOP-18 NSCLC = test system: HOP-18 NSCLC
SK-OV-3 ovarian = test system: SK-OV-3 ovarian
EKVX NSCLC = test system: EKVX NSCLC
SNB-75 CNS = test system: SNB-75 CNS
MALME-3M melanoma = test system: MALME-3M melanoma
HCT-116 colon = test system: HCT-116 colon
XF 498 CNS = test system: XF 498 CNS
K-562 leukemia = test system: K-562 leukemia
SNB-78 CNS = test system: SNB-78 CNS
OVCAR-5 ovarian = test system: OVCAR-5 ovarian
A498 renal = test system: A498 renal
SF-295 CNS = test system: SF-295 CNS
M14 melanoma = test system: M14 melanoma
COLO 205 colon = test system: COLO 205 colon
HOP-62 NSCLC = test system: HOP-62 NSCLC
CAKI-1 renal = test system: CAKI-1 renal
A549 NSCLC = test system: A549 NSCLC
SR leukemia = test system: SR leukemia
786-0 renal = test system: 786-0 renal
SW-620 colon = test system: SW-620 colon
KM12 colon = test system: KM12 colon
SNB-19 CNS = test system: SNB-19 CNS
SK-MEL-2 melanoma = test system: SK-MEL-2 melanoma
NCI-H460 lung = test system: NCI-H460 lung
HCC-2998 colon = test system: HCC-2998 colon
NCI-H522 lung = test system: NCI-H522 lung
TK-10 renal = test system: TK-10 renal
RPMI-8226 leukemia = test system: RPMI-8226 leukemia
CCRF-CEM leukemia = test system: CCRF-CEM leukemia
MOLT-4 leukemia = test system: MOLT-4 leukemia
U251 CNS = test system: U251 CNS
ACHN renal = test system: ACHN renal
LOX IMVI melanoma = test system: LOX IMVI melanoma
OVCAR-4 ovarian = test system: OVCAR-4 ovarian
HT29 colon = test system: HT29 colon
SN12C renal = test system: SN12C renal
M19-MEL melanoma = test system: M19-MEL melanoma
HL-60(TB) leukemia = test system: HL-60(TB) leukemia
RXF 393 renal = test system: RXF 393 renal
HCT-15 colon = test system: HCT-15 colon

Structure (SMILES): Cc1cc(C)nc(Sc2c([N+](=O)[O-])ncn2C)n1
- TGI (LXFL 529 NSCLC): > 100 µM
- TGI (SK-MEL-5 melanoma): > 100 µM
- TGI (HOP-92 NSCLC): > 100 µM
- TGI (RXF-631 renal): > 100 µM
- TGI (UACC-62 melanoma): > 100 µM
- TGI (DMS 114 small cell lung): > 100 µM
- TGI (OVCAR-8 ovarian): > 100 µM
- TGI (SF-539 CNS): > 100 µM
- TGI (NCI-H23 lung): > 100 µM
- TGI (DMS 273 small cell lung): > 100 µM
- TGI (UO-31 renal): > 100 µM
- TGI (SK-MEL-28 melanoma): > 100 µM
- TGI (IGROV1 ovarian): > 100 µM
- TGI (SF-268 CNS): > 100 µM
- TGI (OVCAR-3 ovarian): > 100 µM
- TGI (NCI-H226 lung): > 100 µM
- TGI (UACC-257 melanoma): > 100 µM
- TGI (DLD-1 colon): > 100 µM
- TGI (HOP-18 NSCLC): 85.4 µM
- TGI (SK-OV-3 ovarian): > 100 µM
- TGI (EKVX NSCLC): > 100 µM
- TGI (SNB-75 CNS): > 100 µM
- TGI (MALME-3M melanoma): > 100 µM
- TGI (HCT-116 colon): > 100 µM
- TGI (XF 498 CNS): > 100 µM
- TGI (K-562 leukemia): > 100 µM
- TGI (SNB-78 CNS): > 100 µM
- TGI (OVCAR-5 ovarian): > 100 µM
- TGI (A498 renal): > 100 µM
- TGI (SF-295 CNS): > 100 µM
- TGI (M14 melanoma): > 100 µM
- TGI (COLO 205 colon): > 100 µM
- TGI (HOP-62 NSCLC): > 100 µM
- TGI (CAKI-1 renal): > 100 µM
- TGI (A549 NSCLC): > 100 µM
- TGI (SR leukemia): > 100 µM
- TGI (786-0 renal): > 100 µM
- TGI (SW-620 colon): > 100 µM
- TGI (KM12 colon): > 100 µM
- TGI (SNB-19 CNS): > 100 µM
- TGI (SK-MEL-2 melanoma): > 100 µM
- TGI (NCI-H460 lung): > 100 µM
- TGI (HCC-2998 colon): > 100 µM
- TGI (NCI-H522 lung): > 100 µM
- TGI (TK-10 renal): > 100 µM
- TGI (RPMI-8226 leukemia): > 100 µM
- TGI (CCRF-CEM leukemia): > 100 µM
- TGI (MOLT-4 leukemia): > 100 µM
- TGI (U251 CNS): > 100 µM
- TGI (ACHN renal): > 100 µM
- TGI (LOX IMVI melanoma): > 100 µM
- TGI (OVCAR-4 ovarian): > 100 µM
- TGI (HT29 colon): > 100 µM
- TGI (SN12C renal): > 100 µM
- TGI (M19-MEL melanoma): > 100 µM

Structure (SMILES): O=C(Nc1ccc2[nH]c3c(-c4ccccc4)nccc3c2c1)c1ccccc1[N+](=O)[O-]
- TGI (LXFL 529 NSCLC): 47.2 µM
- TGI (HOP-92 NSCLC): 8.97 µM
- TGI (HL-60(TB) leukemia): 10.6 µM
- TGI (RXF-631 renal): > 100 µM
- TGI (DMS 114 small cell lung): > 100 µM
- TGI (OVCAR-8 ovarian): > 100 µM
- TGI (SF-539 CNS): 3.46 µM
- TGI (NCI-H23 lung): 33.5 µM
- TGI (DMS 273 small cell lung): 3.76 µM
- TGI (SK-MEL-28 melanoma): > 100 µM
- TGI (IGROV1 ovarian): > 100 µM
- TGI (SF-268 CNS): > 100 µM
- TGI (NCI-H226 lung): 6.2 µM
- TGI (RXF 393 renal): 3.69 µM
- TGI (UACC-257 melanoma): 30.7 µM
- TGI (HOP-18 NSCLC): > 100 µM
- TGI (EKVX NSCLC): > 100 µM
- TGI (SNB-75 CNS): 9.14 µM
- TGI (MALME-3M melanoma): 3.64 µM
- TGI (HCT-116 colon): > 100 µM
- TGI (XF 498 CNS): 18.9 µM
- TGI (K-562 leukemia): > 100 µM
- TGI (SNB-78 CNS): > 100 µM
- TGI (OVCAR-5 ovarian): 4.63 µM
- TGI (A498 renal): 9.47 µM
- TGI (SF-295 CNS): 3.7 µM
- TGI (M14 melanoma): 5.88 µM
- TGI (HCT-15 colon): 5.32 µM
- TGI (COLO 205 colon): 23.5 µM
- TGI (CAKI-1 renal): > 100 µM
- TGI (A549 NSCLC): > 100 µM
- TGI (SR leukemia): 6.97 µM
- TGI (SW-620 colon): 37.3 µM
- TGI (KM12 colon): > 100 µM
- TGI (SNB-19 CNS): > 100 µM
- TGI (SK-MEL-2 melanoma): 21.4 µM
- TGI (NCI-H460 lung): > 100 µM
- TGI (HCC-2998 colon): 11.4 µM
- TGI (TK-10 renal): 27.6 µM
- TGI (RPMI-8226 leukemia): > 100 µM
- TGI (CCRF-CEM leukemia): > 100 µM
- TGI (MOLT-4 leukemia): 15.3 µM
- TGI (U251 CNS): 16.7 µM
- TGI (ACHN renal): > 100 µM
- TGI (OVCAR-4 ovarian): > 100 µM
- TGI (HT29 colon): 4.3 µM
- TGI (SN12C renal): > 100 µM

Structure (SMILES): COc1ccc2c(c1)CCc1c(C(C)=O)c3ccccc3n1C2
- TGI (LXFL 529 NSCLC): > 100 µM
- TGI (SK-MEL-5 melanoma): > 100 µM
- TGI (HOP-92 NSCLC): > 100 µM
- TGI (HL-60(TB) leukemia): > 100 µM
- TGI (RXF-631 renal): > 100 µM
- TGI (UACC-62 melanoma): > 100 µM
- TGI (DMS 114 small cell lung): > 100 µM
- TGI (OVCAR-8 ovarian): > 100 µM
- TGI (SF-539 CNS): 62.6 µM
- TGI (NCI-H23 lung): > 100 µM
- TGI (DMS 273 small cell lung): > 100 µM
- TGI (UO-31 renal): > 100 µM
- TGI (SK-MEL-28 melanoma): > 100 µM
- TGI (IGROV1 ovarian): > 100 µM
- TGI (SF-268 CNS): > 100 µM
- TGI (OVCAR-3 ovarian): > 100 µM
- TGI (RXF 393 renal): 75.4 µM
- TGI (UACC-257 melanoma): > 100 µM
- TGI (DLD-1 colon): > 100 µM
- TGI (HOP-18 NSCLC): > 100 µM
- TGI (SNB-75 CNS): 85.1 µM
- TGI (MALME-3M melanoma): 74.4 µM
- TGI (HCT-116 colon): > 100 µM
- TGI (XF 498 CNS): 51.2 µM
- TGI (K-562 leukemia): > 100 µM
- TGI (SNB-78 CNS): > 100 µM
- TGI (OVCAR-5 ovarian): > 100 µM
- TGI (SF-295 CNS): > 100 µM
- TGI (M14 melanoma): > 100 µM
- TGI (COLO 205 colon): > 100 µM
- TGI (HOP-62 NSCLC): 91.3 µM
- TGI (CAKI-1 renal): > 100 µM
- TGI (A549 NSCLC): > 100 µM
- TGI (SR leukemia): > 100 µM
- TGI (786-0 renal): > 100 µM
- TGI (SW-620 colon): > 100 µM
- TGI (KM12 colon): > 100 µM
- TGI (SNB-19 CNS): > 100 µM
- TGI (NCI-H460 lung): > 100 µM
- TGI (HCC-2998 colon): > 100 µM
- TGI (NCI-H522 lung): > 100 µM
- TGI (TK-10 renal): > 100 µM
- TGI (CCRF-CEM leukemia): > 100 µM
- TGI (MOLT-4 leukemia): > 100 µM
- TGI (U251 CNS): > 100 µM
- TGI (ACHN renal): > 100 µM
- TGI (LOX IMVI melanoma): > 100 µM
- TGI (OVCAR-4 ovarian): > 100 µM
- TGI (HT29 colon): > 100 µM
- TGI (SN12C renal): > 100 µM
- TGI (M19-MEL melanoma): > 100 µM
